Laboratory results as given in the NIST ThermoML archive (doi:10.1016/j.fluid.2015.10.026).
Numbers after ± are expanded uncertainties.

Conditions: Liquid, Brillouin light scattering

CCC(C)(C)OC [2-methoxy-2-methylbutane]
Conditions | speed of sound [m/s]
293.15 K, 0 kPa | 1133.3 ± 5.8
293.15 K, 1000 kPa | 1139.7 ± 5.8
293.15 K, 2500 kPa | 1149 ± 5.8
293.15 K, 4000 kPa | 1158.3 ± 5.9
293.15 K, 5500 kPa | 1167.7 ± 5.9
293.15 K, 7000 kPa | 1177.2 ± 6
293.15 K, 8500 kPa | 1186.7 ± 6
293.15 K, 10000 kPa | 1196.4 ± 6.1
303.15 K, 10 kPa | 1089.4 ± 6.2
303.15 K, 1000 kPa | 1099.1 ± 5.6
303.15 K, 2500 kPa | 1109.3 ± 5.6
303.15 K, 4000 kPa | 1119.3 ± 5.7
303.15 K, 5500 kPa | 1129.3 ± 5.7
303.15 K, 7000 kPa | 1139.3 ± 5.8
303.15 K, 8500 kPa | 1149.2 ± 5.8
303.15 K, 10000 kPa | 1159 ± 5.9
313.15 K, 10 kPa | 1046.4 ± 5.3
313.15 K, 1000 kPa | 1058.3 ± 5.4
313.15 K, 2500 kPa | 1069.4 ± 5.5
313.15 K, 4000 kPa | 1080.3 ± 5.5
313.15 K, 5500 kPa | 1091 ± 5.5
313.15 K, 7000 kPa | 1101.4 ± 5.6
313.15 K, 8500 kPa | 1111.7 ± 5.7
313.15 K, 10000 kPa | 1121.8 ± 5.7
323.15 K, 20 kPa | 1004.2 ± 6.2
323.15 K, 1000 kPa | 1017.4 ± 5.2
323.15 K, 2500 kPa | 1029.4 ± 5.2
323.15 K, 4000 kPa | 1041.1 ± 5.3
323.15 K, 5500 kPa | 1052.5 ± 5.4
323.15 K, 7000 kPa | 1063.5 ± 5.4
323.15 K, 8500 kPa | 1074.2 ± 5.5
323.15 K, 10000 kPa | 1084.6 ± 5.5
333.15 K, 20 kPa | 962.62 ± 5.9
333.15 K, 1000 kPa | 976.26 ± 5
333.15 K, 2500 kPa | 989.25 ± 5.1
333.15 K, 4000 kPa | 1001.8 ± 5.1
333.15 K, 5500 kPa | 1013.9 ± 5.2
333.15 K, 7000 kPa | 1025.6 ± 5.2
333.15 K, 8500 kPa | 1036.8 ± 5.3
333.15 K, 10000 kPa | 1047.6 ± 5.3
343.15 K, 40 kPa | 921.56 ± 6
343.15 K, 1000 kPa | 934.97 ± 4.8
343.15 K, 2500 kPa | 948.94 ± 4.9
343.15 K, 4000 kPa | 962.37 ± 4.9
343.15 K, 5500 kPa | 975.26 ± 5
343.15 K, 7000 kPa | 987.61 ± 5.1
343.15 K, 8500 kPa | 999.41 ± 5.1
343.15 K, 10000 kPa | 1010.7 ± 5.2
353.15 K, 60 kPa | 880.86 ± 6.1
353.15 K, 1000 kPa | 893.5 ± 4.6
353.15 K, 2500 kPa | 908.48 ± 4.7
353.15 K, 4000 kPa | 922.83 ± 4.7
353.15 K, 5500 kPa | 936.54 ± 4.8
353.15 K, 7000 kPa | 949.61 ± 4.9
353.15 K, 8500 kPa | 962.05 ± 4.9
353.15 K, 10000 kPa | 973.86 ± 5
363.15 K, 90 kPa | 840.4 ± 5
363.15 K, 1000 kPa | 851.87 ± 4.4
363.15 K, 2500 kPa | 867.87 ± 4.5
363.15 K, 4000 kPa | 883.16 ± 4.5
363.15 K, 5500 kPa | 897.74 ± 4.6
363.15 K, 7000 kPa | 911.59 ± 4.7
363.15 K, 8500 kPa | 924.74 ± 4.8
363.15 K, 10000 kPa | 937.16 ± 4.8
373.15 K, 120 kPa | 800.06 ± 4.2
373.15 K, 1000 kPa | 810.06 ± 4.2
373.15 K, 2500 kPa | 827.11 ± 4.3
373.15 K, 4000 kPa | 843.38 ± 4.3
373.15 K, 5500 kPa | 858.86 ± 4.4
373.15 K, 7000 kPa | 873.55 ± 4.5
373.15 K, 8500 kPa | 887.46 ± 4.6
373.15 K, 10000 kPa | 900.58 ± 4.6
383.15 K, 160 kPa | 759.72 ± 4
383.15 K, 1000 kPa | 768.09 ± 4
383.15 K, 2500 kPa | 786.2 ± 4.1
383.15 K, 4000 kPa | 803.47 ± 4.2
383.15 K, 5500 kPa | 819.89 ± 4.2
383.15 K, 7000 kPa | 835.47 ± 4.3
383.15 K, 8500 kPa | 850.21 ± 4.4
383.15 K, 10000 kPa | 864.1 ± 4.5
393.15 K, 200 kPa | 719.27 ± 3.8
393.15 K, 1000 kPa | 725.95 ± 3.8
393.15 K, 2500 kPa | 745.14 ± 3.9
393.15 K, 4000 kPa | 763.44 ± 4
393.15 K, 5500 kPa | 780.85 ± 4
393.15 K, 7000 kPa | 797.37 ± 4.2
393.15 K, 8500 kPa | 813 ± 4.2
393.15 K, 10000 kPa | 827.74 ± 4.3
403.15 K, 240 kPa | 678.61 ± 3.6
403.15 K, 1000 kPa | 683.64 ± 3.6
403.15 K, 2500 kPa | 703.93 ± 3.7
403.15 K, 4000 kPa | 723.29 ± 3.8
403.15 K, 5500 kPa | 741.73 ± 3.9
403.15 K, 7000 kPa | 759.25 ± 4
403.15 K, 8500 kPa | 775.83 ± 4.1
403.15 K, 10000 kPa | 791.49 ± 4.1
413.15 K, 300 kPa | 637.63 ± 3.4
413.15 K, 1000 kPa | 641.15 ± 3.4
413.15 K, 2500 kPa | 662.56 ± 3.5
413.15 K, 4000 kPa | 683.02 ± 3.6
413.15 K, 5500 kPa | 702.53 ± 3.7
413.15 K, 7000 kPa | 721.09 ± 3.8
413.15 K, 8500 kPa | 738.7 ± 3.9
413.15 K, 10000 kPa | 755.35 ± 4
423.15 K, 360 kPa | 596.25 ± 3.2
423.15 K, 1000 kPa | 598.5 ± 3.2
423.15 K, 2500 kPa | 621.05 ± 3.3
423.15 K, 4000 kPa | 642.63 ± 3.4
423.15 K, 5500 kPa | 663.25 ± 3.5
423.15 K, 7000 kPa | 682.91 ± 3.6
423.15 K, 8500 kPa | 701.6 ± 3.7
423.15 K, 10000 kPa | 719.33 ± 3.8
433.15 K, 440 kPa | 554.37 ± 3.1
433.15 K, 1000 kPa | 555.68 ± 3
433.15 K, 2500 kPa | 579.38 ± 3.1
433.15 K, 4000 kPa | 602.12 ± 3.2
433.15 K, 5500 kPa | 623.89 ± 3.3
433.15 K, 7000 kPa | 644.7 ± 3.5
433.15 K, 8500 kPa | 664.54 ± 3.6
433.15 K, 10000 kPa | 683.41 ± 3.6
443.15 K, 540 kPa | 511.92 ± 2.9
